Data published in PMC6018958 (ACS Omega, 2017).

Columns and labels:
EGFR^WT [1] = target: T1, EGFR^WT (Homo sapiens, UniProt P00533); test: biochemical
EGFR^L858R [2] = target: T2, EGFR^L858R (Homo sapiens, UniProt P00533, L858R); test: biochemical
EGFR^L858R/T790M [3] = target: T3, EGFR^L858R/T790M (Homo sapiens, UniProt P00533, L858R/T790M); test: biochemical
EGFR^WT [4] = target: T1, EGFR^WT; test: Kinetic characterization; format: biochemical
EGFR^L858R [5] = target: T2, EGFR^L858R; test: Kinetic characterization; format: biochemical
EGFR^L858R/T790M [6] = target: T3, EGFR^L858R/T790M; test: Kinetic characterization; format: biochemical
EGFR^T790M = EGFR^T790M (Homo sapiens, UniProt P00533, T790M); test: SelectScreen kinase profiling; format: biochemical
[7] = tested on: kinases that harbor a cysteine comparable to C797 in the hinge region; test: SelectScreen kinase profiling; format: biochemical; conditions: compound concentration 1 μM; almost all cysteine-containing kinases (Table S1)
EGFR^L858R/T790M [8] = target: T3, EGFR^L858R/T790M; test: SelectScreen kinase profiling

T1 sequence (P00533 25-1210): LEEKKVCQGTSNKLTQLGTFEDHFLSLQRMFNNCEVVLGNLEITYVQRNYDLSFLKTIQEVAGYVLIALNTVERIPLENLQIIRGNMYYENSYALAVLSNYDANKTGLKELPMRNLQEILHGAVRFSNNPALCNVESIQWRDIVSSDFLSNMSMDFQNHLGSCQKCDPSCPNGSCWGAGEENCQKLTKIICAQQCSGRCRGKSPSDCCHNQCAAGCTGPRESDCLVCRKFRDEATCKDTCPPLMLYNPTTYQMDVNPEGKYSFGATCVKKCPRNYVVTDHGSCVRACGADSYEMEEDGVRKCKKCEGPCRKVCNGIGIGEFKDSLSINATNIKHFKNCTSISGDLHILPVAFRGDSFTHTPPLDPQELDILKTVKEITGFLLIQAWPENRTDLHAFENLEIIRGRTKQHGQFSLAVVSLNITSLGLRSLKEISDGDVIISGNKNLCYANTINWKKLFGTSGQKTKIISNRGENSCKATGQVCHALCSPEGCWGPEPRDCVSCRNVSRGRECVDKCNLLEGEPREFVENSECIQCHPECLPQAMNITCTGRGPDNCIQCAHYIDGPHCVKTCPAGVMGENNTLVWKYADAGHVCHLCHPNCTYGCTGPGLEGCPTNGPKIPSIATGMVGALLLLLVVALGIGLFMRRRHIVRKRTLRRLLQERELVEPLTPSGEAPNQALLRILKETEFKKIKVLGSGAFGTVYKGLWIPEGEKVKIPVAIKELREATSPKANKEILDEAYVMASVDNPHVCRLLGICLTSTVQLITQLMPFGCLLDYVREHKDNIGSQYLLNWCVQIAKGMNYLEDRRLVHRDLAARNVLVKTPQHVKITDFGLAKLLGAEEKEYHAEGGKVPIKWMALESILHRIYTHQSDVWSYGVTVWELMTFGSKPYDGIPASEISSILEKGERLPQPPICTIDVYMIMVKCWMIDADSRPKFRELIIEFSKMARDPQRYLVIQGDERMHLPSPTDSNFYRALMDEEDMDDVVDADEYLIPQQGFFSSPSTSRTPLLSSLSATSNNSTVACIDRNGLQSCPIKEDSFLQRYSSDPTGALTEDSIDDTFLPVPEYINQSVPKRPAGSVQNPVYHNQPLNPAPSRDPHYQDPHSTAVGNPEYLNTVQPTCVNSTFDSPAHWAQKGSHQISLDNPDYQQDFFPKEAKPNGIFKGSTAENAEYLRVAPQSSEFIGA
T3 sequence (P00533 25-1210 T790M/L858R): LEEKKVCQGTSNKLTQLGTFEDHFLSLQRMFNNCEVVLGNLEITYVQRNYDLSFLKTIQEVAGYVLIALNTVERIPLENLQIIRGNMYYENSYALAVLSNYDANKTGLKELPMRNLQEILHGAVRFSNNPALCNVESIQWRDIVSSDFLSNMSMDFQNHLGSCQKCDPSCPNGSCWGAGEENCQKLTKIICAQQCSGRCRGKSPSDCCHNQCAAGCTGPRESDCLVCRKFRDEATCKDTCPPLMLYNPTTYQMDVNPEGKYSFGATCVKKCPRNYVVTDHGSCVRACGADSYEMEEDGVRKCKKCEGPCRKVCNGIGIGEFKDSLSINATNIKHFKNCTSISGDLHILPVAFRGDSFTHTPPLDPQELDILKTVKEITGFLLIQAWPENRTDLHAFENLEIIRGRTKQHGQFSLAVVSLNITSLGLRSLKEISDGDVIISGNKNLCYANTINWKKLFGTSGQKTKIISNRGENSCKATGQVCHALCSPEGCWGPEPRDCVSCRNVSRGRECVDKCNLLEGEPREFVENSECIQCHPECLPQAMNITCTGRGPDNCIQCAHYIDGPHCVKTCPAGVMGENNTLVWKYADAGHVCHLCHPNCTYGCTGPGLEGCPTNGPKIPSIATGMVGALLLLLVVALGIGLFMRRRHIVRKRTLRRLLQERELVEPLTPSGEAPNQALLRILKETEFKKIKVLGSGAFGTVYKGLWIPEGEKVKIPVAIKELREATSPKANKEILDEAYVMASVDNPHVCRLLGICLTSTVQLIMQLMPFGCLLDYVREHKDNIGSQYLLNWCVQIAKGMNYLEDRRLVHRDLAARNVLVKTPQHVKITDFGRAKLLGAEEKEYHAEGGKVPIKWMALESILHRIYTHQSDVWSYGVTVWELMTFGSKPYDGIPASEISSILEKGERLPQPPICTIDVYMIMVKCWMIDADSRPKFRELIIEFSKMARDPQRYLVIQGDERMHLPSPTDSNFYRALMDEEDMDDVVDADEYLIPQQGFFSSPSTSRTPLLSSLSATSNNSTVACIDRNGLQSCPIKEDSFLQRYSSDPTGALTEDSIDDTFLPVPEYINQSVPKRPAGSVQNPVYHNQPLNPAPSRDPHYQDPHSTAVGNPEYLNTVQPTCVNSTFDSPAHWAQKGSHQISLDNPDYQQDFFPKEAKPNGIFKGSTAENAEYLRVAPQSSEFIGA
T2 sequence (P00533 25-1210 L858R): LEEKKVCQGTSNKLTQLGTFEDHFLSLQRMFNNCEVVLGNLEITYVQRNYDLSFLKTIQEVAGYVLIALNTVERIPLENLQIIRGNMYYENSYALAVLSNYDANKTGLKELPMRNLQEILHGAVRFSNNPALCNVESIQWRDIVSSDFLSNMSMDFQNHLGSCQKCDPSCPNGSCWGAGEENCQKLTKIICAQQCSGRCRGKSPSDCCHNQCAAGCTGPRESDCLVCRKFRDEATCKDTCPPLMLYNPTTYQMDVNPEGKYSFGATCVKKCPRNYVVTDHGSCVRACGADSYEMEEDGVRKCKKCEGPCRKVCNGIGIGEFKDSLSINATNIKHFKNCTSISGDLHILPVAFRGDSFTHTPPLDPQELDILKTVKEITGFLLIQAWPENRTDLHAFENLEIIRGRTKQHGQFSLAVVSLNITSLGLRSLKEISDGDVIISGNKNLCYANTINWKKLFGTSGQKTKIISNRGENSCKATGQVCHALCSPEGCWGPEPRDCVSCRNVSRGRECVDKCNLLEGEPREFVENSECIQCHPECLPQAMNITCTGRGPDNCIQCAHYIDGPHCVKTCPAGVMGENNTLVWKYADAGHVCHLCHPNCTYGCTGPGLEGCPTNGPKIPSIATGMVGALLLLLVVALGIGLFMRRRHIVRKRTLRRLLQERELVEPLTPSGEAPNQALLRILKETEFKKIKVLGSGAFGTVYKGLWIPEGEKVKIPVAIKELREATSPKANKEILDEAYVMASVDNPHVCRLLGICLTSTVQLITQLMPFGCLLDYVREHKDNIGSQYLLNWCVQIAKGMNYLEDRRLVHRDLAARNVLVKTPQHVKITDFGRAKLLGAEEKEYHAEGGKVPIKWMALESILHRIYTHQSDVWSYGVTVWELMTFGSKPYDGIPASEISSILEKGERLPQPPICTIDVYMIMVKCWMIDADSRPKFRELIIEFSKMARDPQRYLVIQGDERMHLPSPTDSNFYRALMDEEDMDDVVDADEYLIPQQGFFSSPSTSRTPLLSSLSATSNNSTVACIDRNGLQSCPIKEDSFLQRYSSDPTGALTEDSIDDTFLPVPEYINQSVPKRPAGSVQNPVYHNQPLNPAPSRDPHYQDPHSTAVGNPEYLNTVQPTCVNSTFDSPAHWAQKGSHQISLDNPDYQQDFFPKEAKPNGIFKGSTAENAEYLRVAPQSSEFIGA
EGFR^T790M, sequence (P00533 25-1210 T790M): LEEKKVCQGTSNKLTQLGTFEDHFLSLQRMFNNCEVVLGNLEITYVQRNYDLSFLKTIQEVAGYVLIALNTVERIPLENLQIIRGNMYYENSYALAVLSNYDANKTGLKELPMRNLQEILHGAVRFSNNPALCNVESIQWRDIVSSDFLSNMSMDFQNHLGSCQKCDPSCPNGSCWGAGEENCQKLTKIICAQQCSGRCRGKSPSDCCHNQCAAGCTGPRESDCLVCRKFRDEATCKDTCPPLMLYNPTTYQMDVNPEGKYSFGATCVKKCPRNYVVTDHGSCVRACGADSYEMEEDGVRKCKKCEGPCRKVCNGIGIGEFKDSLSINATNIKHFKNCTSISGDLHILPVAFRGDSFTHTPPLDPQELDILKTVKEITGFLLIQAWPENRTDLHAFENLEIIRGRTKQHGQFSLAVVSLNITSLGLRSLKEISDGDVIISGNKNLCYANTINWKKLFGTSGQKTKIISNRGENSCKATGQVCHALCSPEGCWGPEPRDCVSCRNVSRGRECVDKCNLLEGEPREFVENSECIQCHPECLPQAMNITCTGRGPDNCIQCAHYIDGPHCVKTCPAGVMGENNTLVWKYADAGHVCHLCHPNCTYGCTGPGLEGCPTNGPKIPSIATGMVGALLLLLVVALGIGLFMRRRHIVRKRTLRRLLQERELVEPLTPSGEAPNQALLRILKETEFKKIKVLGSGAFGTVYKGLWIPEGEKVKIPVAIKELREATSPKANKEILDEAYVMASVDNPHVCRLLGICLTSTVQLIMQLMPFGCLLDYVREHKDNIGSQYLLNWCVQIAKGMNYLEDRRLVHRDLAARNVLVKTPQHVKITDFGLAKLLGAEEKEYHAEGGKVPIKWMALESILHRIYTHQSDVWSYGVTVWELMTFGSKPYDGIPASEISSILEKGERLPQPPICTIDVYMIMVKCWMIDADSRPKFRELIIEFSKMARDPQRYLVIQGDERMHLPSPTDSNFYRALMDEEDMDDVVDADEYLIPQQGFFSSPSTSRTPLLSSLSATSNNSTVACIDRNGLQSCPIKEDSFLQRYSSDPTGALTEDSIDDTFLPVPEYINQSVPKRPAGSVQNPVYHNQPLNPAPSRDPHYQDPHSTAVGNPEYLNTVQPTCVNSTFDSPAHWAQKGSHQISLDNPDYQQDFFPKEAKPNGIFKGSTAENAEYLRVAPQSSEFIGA

## N#C/C(=C\C1CC1)C(=O)N1CCC[C@@H](n2nc(-c3cnc4[nH]ccc4c3)c3c(N)ncnc32)C1 [1d, (R,E)-2-(3-(4-Amino-3-(1H-pyrrolo[2,3-b]pyridin-5-yl)-1H-pyrazolo[3,4-d]pyrimidin-1-yl)piperidine-1-carbonyl)-3-cyclopropylacrylonitrile]
EGFR^WT [1]
  IC50: 96 ± 26 nM
EGFR^L858R [2]
  IC50: 10 ± 8 nM
EGFR^L858R/T790M [3]
  IC50: 20 ± 13 nM
EGFR^WT [4]
  Ki: 265 ± 1 nM
  kinact: 0.000667 s⁻¹
  kinact/KI: 10000 ± 10000 M⁻¹ s⁻¹
EGFR^L858R [5]
  Ki: 37 ± 6 nM
  kinact: 0.003 s⁻¹
  kinact/KI: 200000 ± 10000 M⁻¹ s⁻¹
EGFR^L858R/T790M [6]
  Ki: 51 ± 2 nM
  kinact: 0.00283 s⁻¹
  kinact/KI: 50000 ± 20000 M⁻¹ s⁻¹
EGFR^T790M
  inhibition at 1 µM: ~90%
[7]
  inhibition: more than 50%
EGFR^L858R/T790M [8]
  inhibition at 1 µM: ~90%

## Cn1cc(-c2nn([C@@H]3CCCN(C(=O)/C(C#N)=C/C4CC4)C3)c3ncnc(N)c23)c2ccccc21 [1e, (R,E)-2-(3-(4-Amino-3-(1-methyl-1H-indol-3-yl)-1H-pyrazolo[3,4-d]pyrimidin-1-yl)piperidine-1-carbonyl)-3-cyclopropylacrylonitrile]
EGFR^WT [1]
  IC50: 338 ± 69 nM
EGFR^L858R [2]
  IC50: 85 ± 34 nM
EGFR^L858R/T790M [3]
  IC50: 213 ± 49 nM
EGFR^WT [4]
  Ki: 1670 ± 450 nM
  kinact: 0.00283 s⁻¹
  kinact/KI: 10000 ± 10000 M⁻¹ s⁻¹
EGFR^L858R [5]
  Ki: 79 ± 9 nM
  kinact: 0.002 s⁻¹
  kinact/KI: 260000 ± 70000 M⁻¹ s⁻¹
EGFR^L858R/T790M [6]
  Ki: 83 ± 10 nM
  kinact: 0.00217 s⁻¹
  kinact/KI: 360000 ± 20000 M⁻¹ s⁻¹

## N#C/C(=C\C1CC1)C(=O)N1CCC[C@@H](n2nc(-c3cccc4ccccc34)c3c(N)ncnc32)C1 [1c, (R,E)-2-(3-(4-Amino-3-(naphthalen-1-yl)-1H-pyrazolo[3,4-d]pyrimidin-1-yl)piperidine-1-carbonyl)-3-cyclopropylacrylonitrile]
EGFR^WT [1]
  IC50: 102 ± 75 nM
EGFR^L858R/T790M [3]
  IC50: 80 ± 51 nM
EGFR^WT [4]
  Ki: 64 ± 1 nM
  kinact: 0.0005 s⁻¹
  kinact/KI: 10000 ± 10000 M⁻¹ s⁻¹
EGFR^L858R [5]
  Ki: 14 ± 2 nM
  kinact: 0.000667 s⁻¹
  kinact/KI: 680000 ± 250000 M⁻¹ s⁻¹
EGFR^L858R/T790M [6]
  Ki: 15 ± 3 nM
  kinact: 0.00183 s⁻¹
  kinact/KI: 730000 ± 160000 M⁻¹ s⁻¹

## N#C/C(=C\C1CC1)C(=O)N1CCC[C@@H](n2nc(-c3ccccc3)c3c(N)ncnc32)C1 [1a, (R,E)-2-(3-(4-Amino-3-phenyl-1H-pyrazolo[3,4-d]pyrimidin-1-yl)piperidine-1-carbonyl)-3-cyclopropylacrylonitrile]
EGFR^WT [1]
  IC50: 5380 ± 3890 nM
EGFR^L858R [2]
  IC50: 229 ± 62 nM
EGFR^L858R/T790M [3]
  IC50: 4540 ± 543 nM

## N#C/C(=C\C1CC1)C(=O)N1CCC[C@@H](n2nc(-c3cccc(C(F)(F)F)c3)c3c(N)ncnc32)C1 [1b, (R,E)-2-(3-(4-Amino-3-(3-(trifluoromethyl)phenyl)-1H-pyrazolo[3,4-d]pyrimidin-1-yl)piperidine-1-carbonyl)-3-cyclopropylacrylonitrile]
EGFR^WT [1]
  IC50: > 10000 nM
EGFR^L858R [2]
  IC50: 385 ± 207 nM
EGFR^L858R/T790M [3]
  IC50: 2540 ± 420 nM
